Laboratory results from patent US9132108B2, “Pharmaceutical composition for ameliorating and/or preventing leptin resistance, and use thereof” (HIROSHIMA UNIVERSITY, priority 2009, dated 2015).

Columns and labels:
Assay type in all cases: in vivo, mouse
[1] = system: circulating leptin levels; experiment: Circulating leptin levels of leptin-resistant mice (Example 9); conditions: 3 weeks after flurbiprofen administration, 3 mg/kg per day orally; control 106.51±3.7122; P<0.05
Method: Similarly with Example 8, 4 weeks-old male mice (C57BL/6 Cr Slc) had been given high-fat diet for 6 months so that leptin resistance would be induced in the mice. Thereafter, the mice were divided into two groups (each consisting of 8 mice), and the mice of individual groups were given the following diets for 3 weeks. • Control group (Cont): normal diet (10 kcal % fat) only • Flurbiprofen-administered group (Ful): normal diet+flurbiprofen Flurbiprofen (F8514, produced by SIGMA) was diluted with drinking water so that the administration amount of flurbiprofen would be 3 mg/kg per day, and was orally administered to the mice in the form of drinking water. […] FIG. 15 is a graph showing circulating leptin levels (ng/ml) of the mice of the control group and the mice of the flurbiprofen-administered group which had been given normal diet for 3 weeks. Values in the graph of FIG. 15 are averages of circulating leptin levels (ng/ml) of mice of each group (± their standard deviations) (n=8 with respect to each group). Further, statistic analysis was carried out using t-test.

mice given high-fat diet = experiment: High-fat diet-induced accumulation of visceral fat (Example 5); conditions: Group 4 (high-fat diet+flurbiprofen) vs Group 2; 10 mg/kg per day orally, 8 weeks; significance level <5%
Method: 4 weeks-old mice (C57BL/6 Cr Slc) were divided into four groups each consisting of 7-8 mice. Mice of individual groups were given diets as follows for 8 weeks similarly with Example 4. • Group 1: Normal diet (10 kcal % fat) only • Group 2: High-fat diet (60 kcal % fat) only • Group 3: Normal diet+flurbiprofen • Group 4: High-fat diet+flurbiprofen Flurbiprofen (F8514, produced by SIGMA) was diluted with drinking water so that the administration amount of flurbiprofen would be 10 mg/kg per day, and was orally administered to the mice in the form of drinking water. The mice raised for 8 weeks with high-fat diet or normal diet were cut open along a median line, and the amount of fatty tissue (visceral fat) was measured. Visceral fat was extracted from the abdomen of a mouse, and wet weight of the fat was measured. […] FIG. 9 is a graph showing the amounts of fat contents of mice of individual groups to which flurbiprofen had been administered for 8 weeks. Values in the graph of FIG. 9 are averages of the amounts (g) of fat of mice of each group (± their standard deviations) (n=7-8 with respect to each group). Further, statistic analysis was carried out using t-test.

[2] = system: mice given high-fat diet for 6 months (leptin resistance); experiment: Visceral fat of leptin-resistant mice, therapeutic effect (Example 8); conditions: 3 weeks after flurbiprofen administration, 3 mg/kg per day orally; vs control group; P<0.01
From the text: In Example 8, effectiveness of flurbiprofen in ameliorating leptin resistance was confirmed by measuring a change in body weight of mice as a reference index. Specifically, 4 weeks-old male mice (C57BL/6 Cr Slc) had been given high-fat diet for 6 months so that leptin resistance would be induced in the mice. Thereafter, the mice were divided into two groups (each consisting of 14 mice), and the mice of individual groups were given the following diets for 3 weeks. • Control group (Cont): normal diet (10 kcal % fat) only • Flurbiprofen-administered group (Ful): normal diet+flurbiprofen Flurbiprofen (F8514, produced by SIGMA) was diluted with drinking water so that the administration amount of flurbiprofen would be 3 mg/kg per day, and was orally administered to the mice in the form of drinking water. The rates of change in body weight of the mice of individual groups were measured with the date when administration of flurbiprofen started (0 week) as a reference. Further, the amount of visceral fat (g) was measured. The visceral fat was extracted from abdomens of the mice and wet weight thereof was measured. FIG. 14 is a graph showing the amount of visceral fat (g) of the mice of the control group and the mice of the flurbiprofen-administered group which had been given normal diet for 3 weeks. […]

blood glucose level = experiment: Glucose tolerance test after 8 weeks of diet (Example 4); conditions: 10 mg/kg per day orally
From the text: In view of the above, Example 4 discussed whether it is possible to evaluate induction of leptin resistance by measuring a change in blood glucose level by the glucose tolerance test as a reference index. At the same time, Example 4 discussed whether administration of flurbiprofen can prevent induction of leptin resistance, by measuring a change in blood glucose level by the glucose tolerance test as a reference index. Specifically, 4 weeks-old mice (C57BL/6 Cr Slc) were divided into four groups each consisting of 14-16 mice. Mice of individual groups were given diets as follows for 8 weeks similarly with Example 3. • Group 1: Normal diet (10 kcal % fat) only • Group 2: High-fat diet (60 kcal % fat) only • Group 3: Normal diet+flurbiprofen • Group 4: High-fat diet+flurbiprofen Flurbiprofen (F8514, produced by SIGMA) was diluted with drinking water so that the administration amount of flurbiprofen would be 10 mg/kg per day, and was orally administered to the mice in the form of drinking water. […] In Example 4, mice were fasted overnight for 17 hours, and fasted blood glucose level (pre) was measured by Freestyle freedom (NIPRO CORPORATION, blood glucose self-monitoring system) at 10:00 a.m. […] Blood glucose level was measured by Freestyle freedom (NIPRO CORPORATION, blood glucose self-monitoring system) 30 minutes, 1 hour, and 2 hours after the administration. […]

mice = experiment: Body length of mice after flurbiprofen administration (Example 10); conditions: flurbiprofen-administered group vs control group; 3 mg/kg per day orally, 3 weeks
Method: Similarly with Example 8, 4 weeks-old male mice (C57BL/6 Cr Slc) had been given high-fat diet for 6 months so that leptin resistance would be induced in the mice. Thereafter, the mice were divided into two groups (each consisting of 8 mice), and the mice of individual groups were given the following diets for 3 weeks. • Control group (Cont): normal diet (10 kcal % fat) only • Flurbiprofen-administered group (Ful): normal diet+flurbiprofen Flurbiprofen (F8514, produced by SIGMA) was diluted with drinking water so that the administration amount of flurbiprofen would be 3 mg/kg per day, and was orally administered to the mice in the form of drinking water. The result of measurement of body length of the mice, to which flurbiprofen had been administered for 3 weeks, is shown in FIG. 16. FIG. 16 is a graph showing the body length (cm) of the mice of the control group and the mice of the flurbiprofen-administered group which had been given normal diet for 3 weeks. Values in the graph of FIG. 16 are averages of body lengths (cm) of mice of each group (± their standard deviations) (n=8 with respect to each group). Further, statistic analysis was carried out using t-test.

body length (mice): no significant difference in body length
Compound: C[C@@H](C(=O)O)c1ccc(-c2ccccc2)c(F)c1 [flurbiprofen]
circulating leptin level [1]: 87.105 ± 5.4415 ng/mL
amount of fat content (visceral fat, wet weight) (mice given high-fat diet): significant decrease in the amount of fat content
amount of visceral fat [2]: significantly decreased
blood glucose level in glucose tolerance test (blood glucose level; Group 3 (normal diet+flurbiprofen) vs Group 1 (normal diet)): no significant difference in blood glucose level
blood glucose level in glucose tolerance test (blood glucose level; Group 4 (high-fat diet+flurbiprofen), 1 hour after glucose 2 g/kg i.p., significant difference vs Group 2): rapidly decreased blood glucose level
